The text below walks through data of ChEMBL document CHEMBL5346973 (J Med Chem, 2023).

Where a SMILES comes first, the peptide text is derived from it.

In data set [1] the target is Nicotinic acetylcholine receptor alpha9/alpha10 (Rattus norvegicus, UniProt P43144+Q9JLB5). Nature of the data set: Antagonist activity at rat alpha9alpha10 nACh receptor expressed in Xenopus oocyte assessed as inhibition of acetylcholine-induced response at -70 mV holding potential by voltage-clamp based electrophysiological assay. Type of data set: cell-based.
The target of data set [2] is Neuronal acetylcholine receptor subunit alpha-7 (Rattus norvegicus, UniProt Q05941). Nature of the data set: Antagonist activity at rat alpha7 nACh receptor expressed in Xenopus oocyte assessed as inhibition of acetylcholine-induced response at -70 mV holding potential by voltage-clamp based electrophysiological assay. It counts as cell-based.
A short description of data set [3]: Stability of the compound in human serum assessed as compound remaining after 6 hr by UPLC analysis. It counts as ADME, cell-free.
Data set [4] concerns the target Neuronal acetylcholine receptor; alpha9/alpha10 (Homo sapiens, UniProt Q9GZZ6+Q9UGM1). Put plainly: Antagonist activity at human alpha9alpha10 nACh receptor expressed in Xenopus oocyte assessed as inhibition of acetylcholine-induced response at -70 mV holding potential by voltage-clamp based electrophysiological assay. It counts as cell-based.
Data set [5] is described as follows: Selectivity ratio of IC50 for human alpha9alpha10 nACh receptor to IC50 for rat alpha9alpha10 nACh receptor.

Chain of Nicotinic acetylcholine receptor alpha9/alpha10 (P43144 whole entry): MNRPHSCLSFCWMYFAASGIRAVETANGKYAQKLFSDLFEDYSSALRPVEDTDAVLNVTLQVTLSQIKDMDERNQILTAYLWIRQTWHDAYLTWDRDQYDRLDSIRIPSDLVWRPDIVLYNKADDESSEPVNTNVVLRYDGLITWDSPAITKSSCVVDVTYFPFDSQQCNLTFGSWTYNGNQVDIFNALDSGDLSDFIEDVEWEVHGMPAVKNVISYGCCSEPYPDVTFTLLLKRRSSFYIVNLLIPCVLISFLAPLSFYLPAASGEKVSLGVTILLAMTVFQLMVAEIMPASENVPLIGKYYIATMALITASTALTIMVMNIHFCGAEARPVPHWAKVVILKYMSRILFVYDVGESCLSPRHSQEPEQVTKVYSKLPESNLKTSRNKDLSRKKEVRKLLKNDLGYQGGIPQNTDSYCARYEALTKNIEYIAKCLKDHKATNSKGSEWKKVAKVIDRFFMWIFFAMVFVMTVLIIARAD
Chain of Nicotinic acetylcholine receptor alpha9/alpha10 (Q9JLB5 whole entry): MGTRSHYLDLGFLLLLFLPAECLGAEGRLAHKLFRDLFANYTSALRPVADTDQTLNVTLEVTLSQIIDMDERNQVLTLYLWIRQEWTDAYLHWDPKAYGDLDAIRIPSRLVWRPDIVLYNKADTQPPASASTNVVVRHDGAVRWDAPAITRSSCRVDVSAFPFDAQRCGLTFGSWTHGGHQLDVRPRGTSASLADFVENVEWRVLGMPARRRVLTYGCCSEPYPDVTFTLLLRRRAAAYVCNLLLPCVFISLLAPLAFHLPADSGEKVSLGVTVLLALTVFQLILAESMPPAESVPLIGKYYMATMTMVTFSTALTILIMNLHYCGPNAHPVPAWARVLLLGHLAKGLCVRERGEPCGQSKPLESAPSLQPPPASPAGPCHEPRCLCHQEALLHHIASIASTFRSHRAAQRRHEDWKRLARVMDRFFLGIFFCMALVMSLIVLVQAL
Chain of Neuronal acetylcholine receptor; alpha9/alpha10 (Q9UGM1 whole entry): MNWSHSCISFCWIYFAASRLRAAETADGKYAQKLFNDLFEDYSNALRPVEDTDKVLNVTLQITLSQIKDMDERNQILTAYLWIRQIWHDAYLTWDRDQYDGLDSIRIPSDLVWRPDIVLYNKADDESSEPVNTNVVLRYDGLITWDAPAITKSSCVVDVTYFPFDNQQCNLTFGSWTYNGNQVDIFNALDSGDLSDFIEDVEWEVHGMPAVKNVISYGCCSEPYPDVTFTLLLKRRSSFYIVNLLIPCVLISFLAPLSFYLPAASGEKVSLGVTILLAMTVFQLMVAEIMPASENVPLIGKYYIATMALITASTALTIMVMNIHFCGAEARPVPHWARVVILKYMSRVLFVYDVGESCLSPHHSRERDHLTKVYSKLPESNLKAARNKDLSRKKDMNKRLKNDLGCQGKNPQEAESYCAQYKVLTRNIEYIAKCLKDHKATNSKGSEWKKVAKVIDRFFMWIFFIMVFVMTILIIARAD
Chain of Neuronal acetylcholine receptor; alpha9/alpha10 (Q9GZZ6 whole entry): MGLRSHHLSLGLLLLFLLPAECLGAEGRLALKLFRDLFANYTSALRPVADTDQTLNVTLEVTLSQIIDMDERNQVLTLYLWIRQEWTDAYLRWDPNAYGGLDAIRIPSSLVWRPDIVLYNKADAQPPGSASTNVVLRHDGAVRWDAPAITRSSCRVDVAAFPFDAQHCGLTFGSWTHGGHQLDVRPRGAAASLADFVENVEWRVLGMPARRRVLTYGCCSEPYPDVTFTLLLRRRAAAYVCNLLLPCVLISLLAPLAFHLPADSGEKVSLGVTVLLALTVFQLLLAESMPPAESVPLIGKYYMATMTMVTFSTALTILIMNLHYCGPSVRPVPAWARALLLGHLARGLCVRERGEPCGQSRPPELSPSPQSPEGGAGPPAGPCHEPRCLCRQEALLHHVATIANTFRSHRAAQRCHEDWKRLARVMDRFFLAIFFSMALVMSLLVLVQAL
Chain of Neuronal acetylcholine receptor subunit alpha-7 (Q05941 whole entry): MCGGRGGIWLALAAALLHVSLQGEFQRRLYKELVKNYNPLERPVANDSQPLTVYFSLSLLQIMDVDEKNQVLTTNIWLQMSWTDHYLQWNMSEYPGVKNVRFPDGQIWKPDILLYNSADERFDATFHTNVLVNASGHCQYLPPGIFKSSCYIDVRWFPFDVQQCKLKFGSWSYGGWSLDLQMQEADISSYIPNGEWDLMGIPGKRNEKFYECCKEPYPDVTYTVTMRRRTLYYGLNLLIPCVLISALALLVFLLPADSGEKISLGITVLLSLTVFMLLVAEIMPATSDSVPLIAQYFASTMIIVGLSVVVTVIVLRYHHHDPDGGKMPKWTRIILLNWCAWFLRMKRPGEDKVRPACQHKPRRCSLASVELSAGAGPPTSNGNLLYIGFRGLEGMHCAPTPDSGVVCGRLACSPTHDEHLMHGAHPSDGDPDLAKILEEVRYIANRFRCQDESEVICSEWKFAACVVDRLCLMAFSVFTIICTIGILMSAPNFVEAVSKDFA

The IC50 is the concentration that inhibits the measured activity by half. As for `CC[C@H](C)[C@@H]1NC(=O)[C@H](CCCNC(=N)N)NC(=O)[C@H](CCCNC(=N)N)NC(=O)[C@@H](NC(=O)[C@H](Cc2ccc(O)cc2)NC(=O)[C@H](CCCNC(=N)N)NC(=O)[C@H](C)NC(=O)[C@H](CCCNC(=N)N)NC(=O)[C@H](CCCNC(=N)N)NC(=O)[C@H](CC(=O)O)NC(=O)[C@H](Cc2ccc(O)cc2)NC(=O)[C@@H]2CCCN2C(=O)[C@H](CO)NC(=O)[C@H](CCCNC(=N)N)NC(=O)[C@@H]2CSSC[C@H](NC(=O)[C@@H](N)[C@@H](C)O)C(=O)N[C@@H](CCCNC(=N)N)C(=O)N[C@@H](CO)C(=O)N[C@@H](CO)C(=O)NCC(=O)N[C@@H](CCCNC(=N)N)C(=O)N[C@@H](Cc3ccc(O)cc3)C(=O)N2)CSSC[C@@H](C(=O)N[C@H](C(=O)O)C(C)C)NC(=O)[C@H](C)NC(=O)[C@H](CC(=O)O)NC(=O)[C@H]([C@@H](C)O)NC1=O`, the values for the IC50 in data set [1] and in data set [2] were 27 nM and 4480 nM, respectively. Also, in data set [3], the Stability result is recorded as “Stable”.

Regarding `C[C@@H](O)[C@H](NC(=O)[C@H](CS)NC(=O)[C@H](CS)NC(=O)CN)C(=O)N[C@@H](CC(=O)O)C(=O)N1CCC[C@H]1C(=O)N[C@@H](CCCNC(=N)N)C(=O)N[C@@H](CS)C(=O)N[C@@H](CCCNC(=N)N)C(=O)N[C@@H](Cc1ccc(O)c(I)c1)C(=O)N[C@@H](CCC(N)=O)C(=O)N[C@@H](CS)C(=O)N[C@@H](Cc1ccc(O)cc1)C(=O)O`, the values for the IC50 in data set [1] and in data set [4] were 0.9 nM and 1.5 nM, respectively. Further, in data set [5], the Ratio IC50 came out at 1.7.

On to `N=C(N)NCCC[C@H](NC(=O)[C@H](CS)NC(=O)[C@H](CCCNC(=N)N)NC(=O)[C@H](Cc1ccc(O)cc1)NC(=O)[C@H](CCCNC(=N)N)NC(=O)[C@H](CS)NC(=O)[C@H](CCCNC(=N)N)NC(=O)[C@@H]1CCCN1C(=O)[C@H](CC(=O)O)NC(=O)[C@H](CO)NC(=O)[C@H](CS)NC(=O)[C@H](CS)NC(=O)CN)C(=O)O`, for which the results for the IC50 in data set [1] and in data set [4] were 1.5 nM and 494 nM, respectively. In data set [5], the Ratio IC50 was 329.

Consider `CC[C@H](C)[C@H](NC(=O)[C@H](CCC(=O)O)NC(=O)[C@@H]1CCCN1C(=O)[C@H](Cc1cnc[nH]1)NC(=O)[C@H](CC(=O)O)NC(=O)[C@H](Cc1ccc(O)cc1)NC(=O)[C@H](CC(N)=O)NC(=O)[C@H](CS)NC(=O)[C@H](CCCNC(=N)N)NC(=O)[C@@H]1CCCN1C(=O)[C@H](CC(=O)O)NC(=O)[C@H](CO)NC(=O)[C@H](CS)NC(=O)[C@H](CS)NC(=O)CN)C(=O)N[C@@H](CS)C(N)=O`, for which the IC50 in data set [1] was found to be 70 nM; in data set [4], 320 nM. The Ratio IC50 in data set [5] was determined as 4.6.

`CC[C@H](C)[C@@H]1NC(=O)[C@H](CCCNC(=N)N)NC(=O)[C@H](CCCNC(=N)N)NC(=O)[C@@H](NC(=O)[C@H](Cc2ccc(O)cc2)NC(=O)[C@H](CCCNC(=N)N)NC(=O)[C@H](CCCNC(=N)N)NC(=O)[C@H](CCCNC(=N)N)NC(=O)[C@H](CCCNC(=N)N)NC(=O)[C@H](CC(=O)O)NC(=O)[C@H](Cc2ccc(O)cc2)NC(=O)[C@@H]2CCCN2C(=O)[C@H](CO)NC(=O)[C@H](CCCNC(=N)N)NC(=O)[C@@H]2CSSC[C@H](NC(=O)[C@@H](N)[C@@H](C)O)C(=O)N[C@@H](CCCNC(=N)N)C(=O)N[C@@H](CO)C(=O)N[C@@H](CO)C(=O)NCC(=O)N[C@@H](CCCNC(=N)N)C(=O)N[C@@H](Cc3ccc(O)cc3)C(=O)N2)CSSC[C@@H](C(=O)N[C@H](C(=O)O)C(C)C)NC(=O)[C@H](C)NC(=O)[C@H](CC(=O)O)NC(=O)[C@H](C)NC1=O`: the figures for the IC50 in data set [1] and in data set [2] were 21 nM and 650 nM, respectively.

On to `CC[C@H](C)[C@@H]1NC(=O)[C@H](CCCNC(=N)N)NC(=O)[C@H](CCCNC(=N)N)NC(=O)[C@@H]2CSSC[C@H](NC(=O)[C@H](Cc3ccc(O)cc3)NC(=O)[C@H](CCCNC(=N)N)NC(=O)CNC(=O)[C@H](CO)NC(=O)[C@H](CO)NC(=O)[C@H](CCCNC(=N)N)NC(=O)[C@@H](NC(=O)[C@H](C)N)CSSC[C@@H](C(=O)N[C@H](C(=O)O)C(C)C)NC(=O)[C@H](C)NC(=O)[C@H](C)NC(=O)[C@H]([C@@H](C)O)NC1=O)C(=O)N[C@@H](CCCNC(=N)N)C(=O)N[C@@H](CO)C(=O)N1CCC[C@H]1C(=O)N[C@@H](Cc1ccc(O)cc1)C(=O)N[C@@H](CC(=O)O)C(=O)N[C@@H](CCCNC(=N)N)C(=O)N[C@@H](CCCNC(=N)N)C(=O)N[C@@H](CCCNC(=N)N)C(=O)N[C@@H](CCCNC(=N)N)C(=O)N[C@@H](Cc1ccc(O)cc1)C(=O)N2`, for which the IC50 in data set [1] was determined as 27 nM; in data set [2], 5890 nM.

As to `CC[C@H](C)[C@@H]1NC(=O)[C@H](CCCNC(=N)N)NC(=O)[C@H](CCCNC(=N)N)NC(=O)[C@@H]2CSSC[C@H](NC(=O)[C@H](Cc3ccc(O)cc3)NC(=O)[C@H](CCCNC(=N)N)NC(=O)CNC(=O)[C@H](CO)NC(=O)[C@H](CO)NC(=O)[C@H](CCCNC(=N)N)NC(=O)[C@@H](NC(=O)[C@@H](N)[C@@H](C)O)CSSC[C@@H](C(=O)N[C@@H](C)C(=O)O)NC(=O)[C@H](C)NC(=O)[C@H](CC(=O)O)NC(=O)[C@H]([C@@H](C)O)NC1=O)C(=O)N[C@@H](CCCNC(=N)N)C(=O)N[C@@H](CO)C(=O)N1CCC[C@H]1C(=O)N[C@@H](Cc1ccc(O)cc1)C(=O)N[C@@H](CC(=O)O)C(=O)N[C@@H](CCCNC(=N)N)C(=O)N[C@@H](CCCNC(=N)N)C(=O)N[C@@H](CCCNC(=N)N)C(=O)N[C@@H](CCCNC(=N)N)C(=O)N[C@@H](Cc1ccc(O)cc1)C(=O)N2`, the IC50 in data set [1] is 62 nM; in data set [2], 1600 nM.

For `CC(C)C[C@H](NC(=O)[C@H](CCC(=O)O)NC(=O)[C@@H]1CCCN1C(=O)[C@H](Cc1cnc[nH]1)NC(=O)[C@H](CC(N)=O)NC(=O)[C@@H](NC(=O)[C@H](CO)NC(=O)[C@H](CS)NC(=O)[C@H](C)NC(=O)[C@@H]1CCCN1C(=O)[C@H](Cc1cnc[nH]1)NC(=O)[C@H](CO)NC(=O)[C@H](CS)NC(=O)[C@H](CS)NC(=O)CN)C(C)C)C(=O)N[C@@H](CS)C(N)=O` (H-GCCSHPACSVNHPELC-NH2), the figures for the IC50 in data set [1] and in data set [4] were 6.9 nM and 22.2 nM, respectively. For the same compound, in data set [5], the Ratio IC50 is 3.2.

In the case of `CC[C@H](C)[C@@H]1NC(=O)[C@H](CCCNC(=N)N)NC(=O)[C@H](CCCNC(=N)N)NC(=O)[C@@H](NC(=O)[C@H](Cc2ccc(O)cc2)NC(=O)[C@H](CCCNC(=N)N)NC(=O)[C@H](CCCNC(=N)N)NC(=O)[C@H](C)NC(=O)[C@H](CCCNC(=N)N)NC(=O)[C@H](CC(=O)O)NC(=O)[C@H](Cc2ccc(O)cc2)NC(=O)[C@@H]2CCCN2C(=O)[C@H](CO)NC(=O)[C@H](CCCNC(=N)N)NC(=O)[C@@H]2CSSC[C@H](NC(=O)[C@@H](N)[C@@H](C)O)C(=O)N[C@@H](CCCNC(=N)N)C(=O)N[C@@H](CO)C(=O)N[C@@H](CO)C(=O)NCC(=O)N[C@@H](CCCNC(=N)N)C(=O)N[C@@H](Cc3ccc(O)cc3)C(=O)N2)CSSC[C@@H](C(=O)N[C@H](C(=O)O)C(C)C)NC(=O)[C@H](C)NC(=O)[C@H](CC(=O)O)NC(=O)[C@H]([C@@H](C)O)NC1=O`, the values for the IC50 in data set [1] and in data set [2] were 18 nM and 3780 nM, respectively.
